pKd: −log10 of the molar value.

Common to all, as to test: Transactivation test in HeLa cells (luciferase reporter), apparent Kd by Schild regression
What all share (type): cell-based
On the technique in general: A reporter such as luciferase makes a cellular process visible.

The target in assay [1] is T1, RAR alpha (Homo sapiens, UniProt P10276).
T1 sequence (P10276 183-417 limits assumed): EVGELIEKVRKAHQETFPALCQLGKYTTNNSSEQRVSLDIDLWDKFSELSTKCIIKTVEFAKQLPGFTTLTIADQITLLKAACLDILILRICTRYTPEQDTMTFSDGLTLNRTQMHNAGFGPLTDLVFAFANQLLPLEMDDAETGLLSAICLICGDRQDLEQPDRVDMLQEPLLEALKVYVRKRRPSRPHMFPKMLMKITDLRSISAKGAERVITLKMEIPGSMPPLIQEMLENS
As to conditions: stably transfected HeLa cells, versus reference antagonist, 18 hours incubation, read-out: RAR alpha Kdapp. The procedure:
(§1) Activation of receptors by an agonist (activator) in HeLa cells leads to the expression of a reporter gene, luciferase, which generates light in the presence of a substrate. Therefore the activation of receptors can be measured by quantifying the luminescence produced after incubation of the cells in the presence of a reference antagonist. The activator products displace the antagonist from its site, thus permitting the receptor to be activated. The activity is measured by quantifying the increase in light produced. This measurement determines the activating activity of the useful compound in the invention.
(§2) In this study, a constant is determined that represents the affinity of the molecule for the receptor. This value can fluctuate according to the basal activity and expression of the receptor; it is designated apparent Kd (KdApp). […]
(§3) Full agonist controls, also called 100% controls, (4-[2-(5,5,8,8 tetramethyl-5,6,7,8 tetrahydronaphthalene-2-yl)propenyl]-benzoic acid) and inverse agonist controls, also called 0% controls, (4-{(E)-3-[4-(4-tert-butyl-phenyl)-5,5,8,8-tetramethyl-5,6,7,8-tetrahydro-naphthalen-2-yl]-3-oxo-propenyl}-benzoic acid) are also measured.
(§4) These cross curves allow determining the AC50 (concentration at which 50% activation of the receptor is observed) of the reference ligand at different concentrations of the product to be tested. These AC50s are used to calculate the Schild regression by plotting a line conforming to the Schild equation (“Quantitation in receptor pharmacology” Terry P. Kenakin, Receptors and Channels, 2001, 7, 371-385).
(§5) In the case of an […], the AC50 is calculated by plotting the curve of the product at the concentration of the reference ligand giving 80% activation. The percentage of activation that corresponds to the maximum level of activity obtained is also measured. […]
(§6) The culture medium is removed by turning over and 100 μl of a 1:1 PBS (phosphate buffer solution)/luciferin mixture is added to each well. After 5 minutes, the plates are read by the luminescence reader.

Assay [2] concerns the target T2, RAR beta (Homo sapiens, UniProt P10826).
T2 sequence (P10826 183-417 limits assumed): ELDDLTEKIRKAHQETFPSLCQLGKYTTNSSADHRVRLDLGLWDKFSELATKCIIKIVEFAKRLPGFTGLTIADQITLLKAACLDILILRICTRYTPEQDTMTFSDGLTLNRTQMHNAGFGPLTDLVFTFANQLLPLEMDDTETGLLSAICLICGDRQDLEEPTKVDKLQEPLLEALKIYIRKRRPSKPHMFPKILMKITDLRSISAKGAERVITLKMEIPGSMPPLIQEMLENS
The following applies: stably transfected HeLa cells, versus reference antagonist, 18 hours incubation, read-out: RAR beta Kdapp. Here is the method:
as §1, §2, §3, §4, §5, §6

For assay [3], the target named is T3, RAR gamma (Homo sapiens, UniProt P13631).
T3 sequence (P13631 178-423 limits assumed): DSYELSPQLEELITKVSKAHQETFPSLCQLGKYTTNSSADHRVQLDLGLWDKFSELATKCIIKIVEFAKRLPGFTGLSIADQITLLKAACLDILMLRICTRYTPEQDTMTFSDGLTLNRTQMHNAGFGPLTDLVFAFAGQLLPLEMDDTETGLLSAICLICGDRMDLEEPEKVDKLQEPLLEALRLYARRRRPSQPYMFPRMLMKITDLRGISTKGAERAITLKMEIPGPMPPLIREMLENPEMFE
As to conditions: stably transfected HeLa cells, versus reference antagonist, 18 hours incubation, read-out: RAR gamma Kdapp. The procedure: as §1, §2, §3, §4, §5, §6

With `CC1(C)CCC(C)(C)c2cc(-c3cc(-c4ccc(C(=O)O)cc4)ccc3CCCO)ccc21` [Compound 1, 4′-(3-hydroxy-propyl)-3′-(5,5,8,8-tetramethyl-5,6,7,8-tetrahydro-naphthalen-2-yl)-biphenyl-4-carboxylic acid], the pKd is 6.92 in assay [1], 8.40 in assay [2] and 8.40 in assay [3].
